Assay results: article PMC4383003, “Transfer hydrogenation catalysis in cells as a new approach to anticancer drug design” (Nature Communications, 2015)
Values joined by “and” are separate entries in the source; they are usually repeats but may differ in a detail not shown here. Equal values may be shown once.

Legend:
[1] = pH* titration of the 9-EtG adduct (1H NMR); assay type: physicochemical; conditions: protonation/deprotonation of N1 of coordinated 9-EtG, H8 chemical shift versus pH*
Source text: [(p-cym)Ru(TsEn)(9-EtG)]+ was used to confirm that the complex binds to N7. A plot
of the chemical shift of H8 from bound 9-EtG (Supplementary Figure 3), versus pH*
from coordinated 9-EtG and therefore we conclude that the binding of complex 2 to […]

[2] = pKa* of aqua adducts of the complexes; assay type: physicochemical; conditions: pKa value determined in deuterated solvent
Source text: Table 1 pKa* values for aqua adducts of catalysts 1–4 (and 8 for comparison) and turnover frequencies for transfer hydrogenation of NAD^+ using formate. | column: pKa*

[3] = Transfer hydrogenation of NAD+ to 1,4-NADH with formate, followed by 1H NMR; conditions: NAD+ 2 mol equiv, formate 25 mol equiv, 310 K, pH* 7.2; for TOF D2O/MeOH-d4: 23% MeOH-d4/77% D2O
Method: Complexes 1–7 were dissolved in MeOH-d4/D2O (5:1 v/v, 1.4 mM, 4 ml). Solutions of sodium formate (35 mM, 4 ml) and NAD^+ in D2O (2.8 mM, 2 ml) were also prepared and incubated at 310 K. In a typical experiment, 200-μl aliquots of each solution were added to a 5-mm NMR tube and the pH* adjusted to 7.2±0.1 (total volume 0.635 ml, final concentrations: Ru complex 0.44 mM; NAD^+ 0.88 mM; formate 11.02 mM; molar ratio 1:2:25). ^1H NMR spectra were recorded at 310 K every 162 s until the completion of the reaction.
Molar ratios of NAD^+ and NADH were determined by integrating the peaks at 9.33 and 6.96 p.p.m. (NAD^+ and 1,4-NADH, respectively). The turnover number for the reaction was calculated as follows: […]
where In is the integral of the signal at n p.p.m. and [NAD^+]0 is the concentration of NAD^+ at the start of the reaction.

[4] = tested on: A2780 human ovarian cancer cells; assay: In vitro growth inhibition assay (SRB), A2780; assay type: cell-based; conditions: A2780, Supplementary Table 3
Method: A2780 human ovarian carcinoma and MRC5 human fetal lung fibroblasts were obtained from the European Collection of Cell Cultures. Both cell lines were grown in Roswell Park Memorial Institute medium (RPMI-1640) supplemented with 10% of fetal calf serum, 1% of 2 mM glutamine and 1% penicillin/streptomycin. All cells were grown as adherent monolayers at 310 K in a 5% CO2-humidified atmosphere and passaged at ca. 70–80% confluency.
The antiproliferative activity of complexes 1–8 was determined in A2780 ovarian cancer cells and MRC5 fibroblasts. Briefly, 96-well plates were used to seed 5,000 cells per well. The plates were left to pre-incubate with drug-free medium at 310 K for 48 h before adding different concentrations of the compounds to be tested. A drug exposure period of 24 h was allowed. After this, supernatants were removed by suction and each well was washed with PBS. A further 72 h were allowed for the cells to recover in drug-free medium at 310 K. The sulforhodamine B (SRB) assay was used to determine cell viability. IC50 values, as the concentration that causes 50% cell death, were determined as duplicates of triplicates in two independent sets of experiments and their s.d. were calculated.

[5] = tested on: A2780 ovarian cancer cells; assay: Cell viability on co-administration of Ru complexes (1/3 x IC50) with formate or acetate; assay type: cell-based, human; conditions: for Cell viability: A2780, complex 1/3 x IC50, 24 h
Method: Cell viability assays were carried out with complexes 1–8 in A2780 ovarian cancer cells. These experiments were carried out as described above with the following modifications: a fixed concentration of each Ru complex equal to 1/3 × IC50 was used in co-administration with three different concentrations of sodium formate or sodium acetate (0.5, 1.0 and 2.0 mM). To prepare the stock solution of the drug, the complex was dissolved in 5% dimethylsulfoxide and diluted in a 1:1 mixture of 0.9% saline:cell culture medium. This stock was further diluted using RPMI-1640 until working concentrations were achieved. Separately, stock solutions of sodium formate or sodium acetate were prepared in saline. The complex and formate were added to each well independently, but within 5 min of each other.
Supplementary Table 7: Percent cell viability of A2780 ovarian cancer cells exposed to equipotent concentrations of ruthenium complexes 1-3 and 5-8 (1/3 x […]
The experiments included 48 h of pre-incubation and 72 h of drug recovery, both in drug-free medium at 310 K in a 5% CO2 humidified atmosphere. All the experiments were performed as duplicates of triplicates in independent experiments and the error bars were calculated as the standard deviation from the mean.
Supplementary Table 11: Cell viability (%) of A2780 ovarian cancer cells exposed […]
administered with different concentrations of sodium acetate (0, 0.5, 1 and 2 mM).
The experiments involved 48 h of pre-incubation and 72 h of drug recovery, both in […]
Cell viability percentages (%)
Complex Acetate concentration (mM)

[6] = tested on: A2780 ovarian cancer cells; assay: Ruthenium accumulation in cancer cells (ICP-MS); assay type: cell-based, human; conditions: for Cell Ru: A2780, 1/3 x IC50, 24 h drug exposure, no recovery time; for Cell accum.: A2780, 24 h, 1/3 x IC50
Method: Briefly, 1.5 × 10^6 cells per well were seeded on a six-well plate. […] After this time, cells were washed, treated with trypsin-EDTA, counted and cell pellets were collected. Each pellet was digested overnight in concentrated nitric acid (73%) at 353 K; the resulting solutions were diluted using double-distilled water to give a final concentration of 5% HNO3 and the amount of Ru taken up by the cells was determined by ICP–MS. […]
Supplementary Table 3: Antiproliferative activity of complexes 1-8 in A2780 ovarian cancer cells and their cellular accumulation (expressed as ng Ru per million cells).
The latter experiments were carried out using equipotent concentrations of the […]
experiments were performed as duplicates of triplicates in independent experiments and the error bars were calculated as the standard deviation from the mean. […]

9-ethylguanine = assay: Binding to model nucleobase 9-ethylguanine by 1H NMR; conditions: D2O, pH* 7.2 ± 0.1, 310 K
Method: Supplementary Table 4: Binding constants for formation of 9-EtG adducts of complexes 1-4 determined by 1H NMR. The experiments were performed in D2O, pH* 7.2 ± 0.1 and 310 K. Equilibrium was reached by the time the first 1H NMR spectrum was recorded (< 10 min). […]
DNA is believed to be the main target for [(bip)Ru(en)Cl]+ (8). Due to the structural similarity of the complexes 1-5 with complex 8, their binding to DNA was […]
Interaction with nucleobases
Initially, model nucleobases, 9-ethylguanine and 9-methyladenine were reacted with complexes 1-4 in D2O, 310 K and pH* 7.2 ± 0.1. The binding of the complexes to 9-EtG or 9-MeA was monitored by 1H-NMR spectroscopy. Peaks for the 9-EtG adducts were observed by the time the first spectrum was recorded (< 5 min after mixing), […]
equilibrium was reached rapidly. The binding constants for formation of 9-EtG adducts determined by NMR were between 60 and 106 mM-1 (Supplementary Table 4). These values are in the same range as that from the ethylenediamine complex [(bip)Ru(en)Cl]+ (K9-EtG= 60.3 mM-1),2 which also binds strongly to DNA.3, 4 The high resolution mass spectrum confirmed the formation of [(η6-arene)Ru(XEn)(9-EtG)]+ (Supplementary Table 5). The interaction of complexes 1-4 with 9-MeA was also investigated, but no reaction was detected by 1H-NMR.
It is well established that N7 of guanine is the preferred nucleotide binding site for many transition metals ions. 2-8 Furthermore, strong and selective binding to N7 of 9-EtG, has been observed for [(η6-arene)Ru(en)Cl]+.3, 4 A pH* titration of […]

Structure (SMILES) | pKa* [1] | pKa* [2] | TOF D2O/MeOH-d4 [3] [h⁻¹] | TOF D2O [3] [h⁻¹] | IC50 [4] [µM] | Cell viability ([5]; formate 0 mM) [%] | Cell viability ([5]; formate 0.5 mM) [%] | Cell viability ([5]; formate 1 mM) [%] | Cell viability ([5]; formate 2 mM) | Cell Ru [6] [ng x 106 cells] | Cell accum. [6] [ng Ru/10^6 cells] | Binding constant for formation of 9-EtG adducts (9-ethylguanine) [mM⁻¹] | decrease in cell survival ([5]; A2780, formate increased from 0 to 2 mM)
CCn1cnc2c(=O)[nH]c(N)nc21.Cc1ccc(C(C)C)cc1.Cc1ccc(S(=O)(=O)[N-]CCN)cc1.[Ru+2] [[(p-cym)Ru(TsEn)(9-EtG)]+] | 8.77 | – | – | – | – | – | – | – | – | – | – | – | –
Cc1ccc(C(C)C)cc1.NCC[N-]S(=O)(=O)c1ccc(C(F)(F)F)cc1.[Cl-].[Ru+2] [Complex 3, [(p-cym)Ru(TfEn)Cl]] | – | 9.71±0.01 | 5.7 ± 0.3 | 3.06 ± 0.05 | 14.2 ± 0.8 | 71 ± 2 | 60± 2 | 39.4 ± 2.0 | 19 ± 2% | 0.31 ± 0.04 | 0.31 | 60.5 ± 6.0 | –
CS(=O)(=O)[N-]CCN.Cc1ccc(C(C)C)cc1.[Cl-].[Ru+2] [Complex 1, [(p-cym)Ru(MsEn)Cl]] | – | 9.86±0.01 | 1.25 ± 0.03 | 1.11 ± 0.02 | 11.9 ± 0.8 | – | 61± 1 | 40.0 ± 0.4 | 1.5 ± 0.1% and ~1% | 0.16 ± 0.02 | 0.16 | 105.4 ± 2.3 | ca. 50 fold
